36 molecules from ChEMBL document CHEMBL1687918, “Cell-permeable and plasma-stable peptidomimetic inhibitors of the postsynaptic density-95/N-methyl-D-aspartate receptor interaction” (J Med Chem, 2011) can be followed below.

For orientation: Ki means the dissociation constant of the complex between target and ligand, obtained from inhibition or displacement. Usually half-life stands for how long it takes for the measured level to halve.

The source made the active and inactive calls. The calls are words filed in the database; no cut-off is given here. Peptide text beside a SMILES is read from it.

The target of data set [1] is T1, Disks large homolog 4 (Homo sapiens, UniProt P78352). In words: Inhibition of PSD-95 PDZ2 domain-GluN2B interaction expressed in COS7 cells transfected with pGFP2-PDZ2 and pRluc-N2B at 50 to 1000 uM by BRET assay. Type of data set: cell-based. The settings on record: COS-7.
Target sequence in this assay (P78352 whole entry, looked up, the tested form may be a part): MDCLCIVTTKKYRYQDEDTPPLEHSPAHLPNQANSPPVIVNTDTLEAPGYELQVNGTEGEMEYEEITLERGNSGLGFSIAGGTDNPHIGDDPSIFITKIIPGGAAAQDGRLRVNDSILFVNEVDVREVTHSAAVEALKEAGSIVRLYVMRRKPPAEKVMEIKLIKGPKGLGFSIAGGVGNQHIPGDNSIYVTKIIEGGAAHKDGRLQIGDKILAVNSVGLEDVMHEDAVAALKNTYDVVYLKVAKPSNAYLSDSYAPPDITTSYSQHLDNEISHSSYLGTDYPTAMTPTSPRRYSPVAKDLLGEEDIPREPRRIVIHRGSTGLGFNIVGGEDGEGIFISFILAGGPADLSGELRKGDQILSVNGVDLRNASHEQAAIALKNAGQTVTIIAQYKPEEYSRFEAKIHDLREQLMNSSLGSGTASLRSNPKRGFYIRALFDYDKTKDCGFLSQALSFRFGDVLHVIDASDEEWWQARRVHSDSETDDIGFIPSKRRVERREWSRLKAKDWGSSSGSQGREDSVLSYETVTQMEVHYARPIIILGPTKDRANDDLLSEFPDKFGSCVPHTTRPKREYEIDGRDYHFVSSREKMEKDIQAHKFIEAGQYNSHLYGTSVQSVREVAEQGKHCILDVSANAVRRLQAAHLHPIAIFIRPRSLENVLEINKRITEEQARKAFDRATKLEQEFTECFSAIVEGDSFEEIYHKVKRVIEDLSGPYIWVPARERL
Data set [2] deals with T1, Disks large homolog 4. In words: Inhibition of PSD-95 PDZ3 domain by competitive fluorescence polarization assay. (In general: In fluorescence polarisation assays a small probe gives low polarisation when free and higher when bound to something large.)
Target sequence in this assay (P78352 whole entry, the tested form may be a part): as the sequence (P78352 whole entry, looked up, the tested form may be a part) above
Data set [3] concerns the target T1, Disks large homolog 4. As to the kind of experiment: Inhibition of PSD-95 PDZ2 domain-GluN2B interaction expressed in COS7 cells transfected with pGFP2-PDZ2 and pRluc-N2B at 500 uM by BRET assay. Type of data set: cell-based. The settings on record: COS-7. (Bioluminescence resonance energy transfer reports proximity on the nanometre scale.)
Target sequence in this assay (P78352 whole entry, looked up, the tested form may be a part): as above
Data set [4] in a line: Stability in human plasma assessed as half life by ESI-LC/MS. The class given is ADME, cell-free.
Data set [5] has as its target T1, Disks large homolog 4. In words: Inhibition of PSD-95 PDZ2 domain by competitive fluorescence polarization assay.
Target sequence in this assay (P78352 whole entry, the tested form may be a part): as the sequence (P78352 whole entry, looked up, the tested form may be a part) above
Data set [6] deals with T1, Disks large homolog 4. As to the kind of experiment: Inhibition of PSD-95 PDZ2 domain-GluN2B interaction expressed in COS7 cells transfected with pGFP2-PDZ2 and pRluc-N2B at 100 uM by BRET assay. The class given is cell-based. The note with it: COS-7.
Target sequence in this assay (P78352 whole entry, looked up, the tested form may be a part): as above

Turning to `CC(C)[C@H](NC(=S)[C@H](C)NC(=O)[C@@H](NC(=O)[C@H](CCC(=O)O)NCCc1ccc2ccccc2c1)[C@@H](C)O)C(=O)O`, at Disks large homolog 4 [1], the inhibition entry is “Dose-dependent effect”. Also, the Ki on Disks large homolog 4 [2] (read-out: Ki) was determined as 11 µM; on Disks large homolog 4 [5], 1.1 µM. At Disks large homolog 4 [3], the inhibition result is “Active”. Further, the half-life in data set [4] is above 117 h.
Turning to `CC(C)[C@H](NC(=O)[C@H](CC(=O)O)NC(=O)[C@@H](NC(=O)[C@H](CCC(=O)O)NCCC1CCCCC1)[C@@H](C)O)C(=O)O`, the Ki entry at Disks large homolog 4 [2] is listed as “Not Active”. For the same molecule, at Disks large homolog 4 [3], the inhibition entry was “inactive”.
For the molecule `CC(C)[C@H](NC(=S)[C@H](C)NC(=O)[C@@H](NC(=O)[C@H](CCC(=O)O)NCCC1CCCCC1)[C@@H](C)O)C(=O)O`, the inhibition result at Disks large homolog 4 [1] and on Disks large homolog 4 [3] was “Active” each time. For the same molecule, the results for the Ki on Disks large homolog 4 [2] (read-out: Ki) and at Disks large homolog 4 [5] were 11 µM and 0.63 µM, respectively. In addition, in data set [4], the half-life was above 117 h.
For `CC(C)[C@H](NC(=O)[C@H](C)NC(=O)[C@@H](NC(=O)[C@H](C)NCCc1ccc(Cl)c(Cl)c1)[C@@H](C)O)C(=O)O`, the figures for the Ki at Disks large homolog 4 [2] (read-out: Ki) and on Disks large homolog 4 [5] were 64 µM and 13 µM, respectively.
As to `CC(C)[C@H](NC(=O)[C@H](C)NC(=O)[C@@H](NC(=O)[C@H](CCC(=O)O)NCCC1CC2CCC1C2)[C@@H](C)O)C(=O)O` (some centres undefined), the results for the Ki on Disks large homolog 4 [2] (read-out: Ki) and on Disks large homolog 4 [5] were 14 µM and 1.5 µM, respectively.
For `CC(C)[C@H](NC(=O)[C@H](C)NC(=O)[C@@H](NC(=O)[C@H](CCC(=O)O)NCCCc1ccc(F)c(F)c1F)[C@@H](C)O)C(=O)O`, in that order: 44 µM and 4.2 µM.
For the molecule `CC(C)[C@H](NC(=O)[C@H](C)NC(=O)[C@@H](NC(=O)[C@H](CCC(=O)O)NCC1CC2CCC1C2)[C@@H](C)O)C(=O)O` (some centres undefined), the Ki on Disks large homolog 4 [2] (read-out: Ki) worked out at 20 µM; at Disks large homolog 4 [5] it was 1.3 µM.
As to `CC(C)[C@H](NC(=O)[C@H](C)NC(=O)[C@@H](NC(=O)[C@H](C)N)[C@@H](C)O)C(=O)O` (H-ATAV-OH), the Ki on Disks large homolog 4 [2] (read-out: Ki) is above 400 µM. For the same molecule, the inhibition result on Disks large homolog 4 [3] was “inactive”.
For `CC(C)[C@H](NC(=O)[C@H](C)NC(=O)[C@@H](NC(=O)[C@H](CCC(=O)O)NCCCc1ccc2ccccc2c1)[C@@H](C)O)C(=O)O`, the Ki at Disks large homolog 4 [2] (read-out: Ki) worked out at 53 µM; on Disks large homolog 4 [5], 5 µM.
As to `C[C@H](NC(=O)[C@H](C)NC(=O)[C@H](C)NC(=O)[C@H](CCC(=O)O)NCCCc1ccc(Cl)c(Cl)c1)C(=O)O`, on Disks large homolog 4 [1], the inhibition entry was “inactive”.
As for `CC(C)[C@H](NC(=O)[C@H](C)NC(=O)[C@@H](NC(=O)[C@H](CCC(=O)O)NCC1CCCCCC1)[C@@H](C)O)C(=O)O`, the Ki is 16 µM at Disks large homolog 4 [2] (read-out: Ki) and 1.4 µM on Disks large homolog 4 [5].
For `CC(C)[C@H](NC(=O)[C@H](CC(=O)O)NC(=O)[C@@H](NC(=O)[C@H](C)NCCC1CCCCC1)[C@@H](C)O)C(=O)O`, at Disks large homolog 4 [2] (read-out: Ki), the Ki is above 400 µM.
As for `CC(C)[C@H](NC(=O)[C@H](CC(=O)O)NC(=O)[C@@H](NC(=O)[C@@H](N)CCC(N)=O)[C@@H](C)O)C(=O)O`, the Ki result at Disks large homolog 4 [2] is on record as “Not Active”.
Consider `CC(C)[C@H](NC(=O)[C@H](CC(=O)O)NC(=O)[C@@H](NC(=O)[C@H](CCC(=O)O)NCCc1ccc(Cl)c(Cl)c1)[C@@H](C)O)C(=O)O`, for which the Ki on Disks large homolog 4 [2] (read-out: Ki) was found to be 130 µM; at Disks large homolog 4 [5] it was 1.2 µM. In addition, the inhibition entry at Disks large homolog 4 [3] was “inactive”.
As to `CC(C)[C@H](NC(=O)[C@H](CC(=O)O)NC(=O)[C@@H](NC(=O)[C@@H](N)CCC(=O)O)[C@@H](C)O)C(=O)O` (H-ETDV-OH), the inhibition entry on Disks large homolog 4 [3] was “inactive”.
Regarding `CC(C)[C@H](NC(=O)[C@H](C)NC(=O)[C@@H](NC(=O)[C@H](CCC(=O)O)NCCc1ccc2ccc3cccc4ccc1c2c34)[C@@H](C)O)C(=O)O`, the Ki at Disks large homolog 4 [2] (read-out: Ki) stood at 51 µM; on Disks large homolog 4 [5] it was 16 µM.
For the molecule `CN[C@@H](CCC(=O)O)C(=O)N[C@H](C(=O)N[C@@H](C)C(=O)N[C@H](C(=O)O)C(C)C)[C@@H](C)O`, in data set [4], the half-life was 1.88 h. At Disks large homolog 4 [5], this molecule registered a Ki of 9.65 µM.
In the case of H-RRRRRRRRKLSSIESDV-OH, the inhibition result at Disks large homolog 4 [6] was “Active”.
`CC(C)[C@H](NC(=O)[C@H](C)NC(=O)[C@@H](NC(=O)[C@H](CCC(=O)O)NCCc1ccc(Cl)c(Cl)c1)[C@@H](C)O)C(=O)O`: the inhibition result on Disks large homolog 4 [1] was “Dose-dependent effect”. In addition, on Disks large homolog 4 [3], the inhibition result is “Active”. Further, the half-life in data set [4] is 1.38 h.
In the case of `CC(C)[C@H](NC(=O)[C@H](CC(=O)O)NC(=O)[C@@H](NC(=O)[C@H](CCC(N)=O)NCCC1CCCCC1)[C@@H](C)O)C(=O)O`, the Ki entry on Disks large homolog 4 [2] is reported as “Not Active”.
Regarding `CC(C)[C@H](NC(=O)[C@H](C)NC(=O)[C@@H](NC(=O)[C@H](C)NCCc1ccc2ccccc2c1)[C@@H](C)O)C(=O)O`, the Ki at Disks large homolog 4 [2] (read-out: Ki) worked out at 280 µM; at Disks large homolog 4 [5], 56 µM.
Turning to `CN[C@@H](CCC(=O)O)C(=S)N[C@H](C(=O)N[C@@H](C)C(=O)N[C@H](C(=O)O)C(C)C)[C@@H](C)O`, the half-life in data set [4] was above 91.7 h. On Disks large homolog 4 [5], this molecule yielded a Ki of 32 µM.
Consider `CC(C)[C@H](NC(=O)[C@H](C)NC(=O)[C@@H](NC(=O)[C@H](CCC(=O)O)NCCCCc1ccc2ccc3cccc4ccc1c2c34)[C@@H](C)O)C(=O)O`, for which the Ki on Disks large homolog 4 [2] (read-out: Ki) is 76 µM; on Disks large homolog 4 [5], 33 µM.
With `CN[C@@H](CCC(=O)O)C(=O)N[C@H](C(=O)N[C@@H](C)C(=S)N[C@H](C(=O)O)C(C)C)[C@@H](C)O`, the half-life in data set [4] was above 91.7 h. This molecule also registered a Ki at Disks large homolog 4 [5] of 10.8 µM.
For `CC(C)[C@H](NC(=O)[C@H](C)NC(=O)[C@@H](NC(=O)[C@H](CCC(=O)O)NCC12CC3CC(CC(C3)C1)C2)[C@@H](C)O)C(=O)O`, the Ki at Disks large homolog 4 [2] (read-out: Ki) was determined as 6.7 µM; on Disks large homolog 4 [5], 2.1 µM.
In the case of `CC(C)[C@H](NC(=O)[C@H](C)NC(=O)[C@@H](NC(=O)[C@H](CCC(=O)O)NCCC1CCCCC1)[C@@H](C)O)C(=O)O`, the inhibition entry on Disks large homolog 4 [1] is “Dose-dependent effect”. The inhibition entry on Disks large homolog 4 [3] is “Active”. Besides, the half-life in data set [4] stood at 0.483 h. In addition, at Disks large homolog 4 [5], the affinity, expressed as Ki, was 0.63 µM.
As for `CC(C)[C@H](NC(=O)[C@H](C)NC(=O)[C@@H](NC(=O)[C@H](CCC(=O)O)NCCC1CCCCCC1)[C@@H](C)O)C(=O)O`, the Ki is 9.4 µM at Disks large homolog 4 [2] (read-out: Ki) and 1.2 µM at Disks large homolog 4 [5].
As for `CC(C)[C@H](NC(=O)[C@H](C)NC(=O)[C@@H](NC(=O)[C@@H](N)CCC(N)=O)[C@@H](C)O)C(=O)O` (H-QTAV-OH), the results for the Ki on Disks large homolog 4 [2] (read-out: Ki) and on Disks large homolog 4 [5] were above 400 µM and 110 µM, respectively.
Regarding `CC(C)[C@H](NC(=O)[C@H](C)NC(=O)[C@@H](NC(=O)[C@H](CCC(=O)O)NCCc1ccc(F)c(F)c1F)[C@@H](C)O)C(=O)O`, the values for the Ki on Disks large homolog 4 [2] (read-out: Ki) and on Disks large homolog 4 [5] were 8.8 µM and 1.8 µM, respectively.
With `CC(C)[C@H](NC(=O)[C@H](CC(=O)O)NC(=O)[C@@H](NC(=O)[C@H](CCC(=O)O)NCCc1ccc2ccccc2c1)[C@@H](C)O)C(=O)O`, the Ki stood at 210 µM at Disks large homolog 4 [2] (read-out: Ki) and 1.8 µM on Disks large homolog 4 [5]. The inhibition entry at Disks large homolog 4 [3] is “inactive”.
Regarding `CN[C@@H](CCC(=O)O)C(=O)N[C@H](C(=S)N[C@@H](C)C(=O)N[C@H](C(=O)O)C(C)C)[C@@H](C)O`, in data set [4], the half-life is 9 h. In addition, the Ki on Disks large homolog 4 [5] turned out to be 220 µM.
For the molecule `CC(C)[C@H](NC(=O)[C@H](CC(=O)O)NC(=O)[C@@H](NC(=O)[C@H](C)N)[C@@H](C)O)C(=O)O` (H-ATDV-OH), the Ki result at Disks large homolog 4 [2] was “Not Active”.
On to `CC(C)[C@H](NC(=O)[C@H](C)NC(=O)[C@@H](NC(=O)[C@@H](N)CCC(=O)O)[C@@H](C)O)C(=O)O`, for which the inhibition entry at Disks large homolog 4 [3] was “inactive”.
As for `CC(C)[C@H](NC(=S)[C@H](C)NC(=O)[C@@H](NC(=O)[C@H](CCC(=O)O)NCCc1ccc(Cl)c(Cl)c1)[C@@H](C)O)C(=O)O`, the inhibition result at Disks large homolog 4 [1] is “Dose-dependent effect”. The Ki on Disks large homolog 4 [2] (read-out: Ki) came out at 8.3 µM; at Disks large homolog 4 [5] it was 1 µM. Also, at Disks large homolog 4 [3], the inhibition result was “Active”. Besides, the half-life in data set [4] is above 117 h.
With `CC(C)[C@H](NC(=O)[C@H](C)NC(=O)[C@@H](NC(=O)[C@H](CCC(=O)O)NCCCc1c2ccccc2cc2ccccc12)[C@@H](C)O)C(=O)O`, the Ki worked out at 95 µM on Disks large homolog 4 [2] (read-out: Ki) and 9 µM at Disks large homolog 4 [5].
Regarding `CC(C)[C@H](NC(=O)[C@H](C)NC(=O)[C@@H](NC(=O)[C@H](CCC(=O)O)NCCc1ccc2ccccc2c1)[C@@H](C)O)C(=O)O`, the inhibition entry at Disks large homolog 4 [1] was “Dose-dependent effect”. The inhibition entry at Disks large homolog 4 [3] was “Active”. The half-life in data set [4] was determined as 1.53 h.
